Assay results: DBAASP
≈ marks a conversion by molar mass, not a printed value. Where “and” joins values, the source holds several entries; their conditions need not be identical. Equal values may be shown once. Blank lines part the entries; values can stand above or below the compound they belong to.

Columns and labels:
Assay in all cases: ≥ marks a high value that may be exact or a test limit, other limits are often not marked, values filed in µg/mL are converted to µM
[1] = tested on: Escherichia coli CCARM 1238
[2] = tested on: Pseudomonas aeruginosa ATCC 27853
[3] = tested on: Staphylococcus aureus ATCC 25923
[4] = tested on: Salmonella typhimurium CCARM 8013
[5] = tested on: Staphylococcus aureus CCARM 3114
[6] = tested on: Salmonella typhimurium CCARM 8009
[7] = tested on: Listeria monocytogenes KCTC 3710
[8] = tested on: Salmonella typhimurium KCTC 1926
[9] = tested on: Pseudomonas aeruginosa 3592
[10] = tested on: Pseudomonas aeruginosa CGMCC 1.2421
[11] = tested on: Klebsiella pneumoniae CGMCC 1.1736
[12] = tested on: Escherichia coli CGMCC 1.8732
[13] = tested on: Bacillus subtilis CGMCC 1.3376
[14] = tested on: Staphylococcus aureus CGMCC 1.8721
[15] = tested on: Staphylococcus epidermidis CGMCC 1.4260
[16] = tested on: Escherichia coli NBRC 3972
[17] = tested on: Staphylococcus aureus NBRC 13276
[18] = tested on: Pseudomonas aeruginosa NBRC 13275
[19] = tested on: Pseudomonas aeruginosa BH03
[20] = tested on: Pseudomonas aeruginosa PAO1
[21] = tested on: Pseudomonas aeruginosa BH04
[22] = tested on: Pseudomonas aeruginosa BH02
[23] = tested on: Pseudomonas aeruginosa BH01
Shigella dysenteriae = tested on: Shigella dysenteriae
Vibrio harveyi = tested on: Vibrio harveyi
[24] = tested on: Staphylococcus epidermidis
Klebsiella pneumoniae = tested on: Klebsiella pneumoniae
Candida albicans = tested on: Candida albicans
Staphylococcus aureus = tested on: Staphylococcus aureus
Vibrio parahaemolyticus = tested on: Vibrio parahaemolyticus
Aeromonas veronii = tested on: Aeromonas veronii
Proteus mirabilis = tested on: Proteus mirabilis
Bacillus cereus = tested on: Bacillus cereus
Staphylococcus aureus 4 = tested on: Staphylococcus aureus 4
Nocardia asteroides = tested on: Nocardia asteroides
[25] = tested on: Stenotrophomonas maltophilia 2
[26] = tested on: Escherichia coli ATCC 25922
Enterococcus faecalis = tested on: Enterococcus faecalis
Klebsiella oxytoca = tested on: Klebsiella oxytoca
Proteus vulgaris = tested on: Proteus vulgaris
Vibrio cholerae = tested on: Vibrio cholerae
[27] = tested on: Stenotrophomonas maltophilia
Enterococcus faecium = tested on: Enterococcus faecium
Aeromonas hydrophila = tested on: Aeromonas hydrophila
Escherichia coli 1 = tested on: Escherichia coli 1
Aspicilia cinerea = tested on: Aspicilia cinerea
Escherichia coli = tested on: Escherichia coli
Staphylococcus aureus 1 = tested on: Staphylococcus aureus 1
Bacillus subtilis = tested on: Bacillus subtilis
Vibrio anguillarum = tested on: Vibrio anguillarum
Acinetobacter baumannii = tested on: Acinetobacter baumannii
Aeromonas sobria = tested on: Aeromonas sobria
Pseudomonas aeruginosa = tested on: Pseudomonas aeruginosa
Candida glabrata = tested on: Candida glabrata
[28] = tested on: Salmonella enterica subsp. enterica serovar Paratyphi A
Candida glabrata 1 = tested on: Candida glabrata 1

MIC [1]: 4 µM and 8 µM
MIC [2]: 4 µM and 8 µM
MIC [3]: 0.25 µM (≈ 0.42 µg/mL)
MIC [4]: 16 µM and ≥ 32 µM
MIC [5]: 16 µM and ≥ 32 µM
MIC [6]: 8 µM (≈ 13.4 µg/mL)
MIC [7]: 4 µM (≈ 6.72 µg/mL)
MIC [8]: 2 µM (≈ 3.36 µg/mL)
MIC [9]: 8 µM and 16 µM
SMILES: CC[C@H](C)[C@H](NC(=O)[C@H](Cc1c[nH]c2ccccc12)NC(=O)[C@H](CCCCN)NC(=O)[C@@H](NC(=O)[C@@H](N)CCCCN)[C@@H](C)CC)C(=O)N[C@@H](CC(C)C)C(=O)N[C@@H](CCCCN)C(=O)N[C@@H](Cc1ccc(O)cc1)C(=O)N[C@@H](Cc1c[nH]c2ccccc12)C(=O)N[C@@H](CCCCN)C(=O)N[C@@H](Cc1c[nH]c2ccccc12)C(=O)N[C@@H](CO)C(=O)O [KIKWILKYWKWS]

MIC [10]: 12.5 µM (≈ 32.6 µg/mL)
MIC [11]: 12.5 µM (≈ 32.6 µg/mL)
MIC [12]: 12.5 µM (≈ 32.6 µg/mL)
MIC [13]: 12.5 µM (≈ 32.6 µg/mL)
MIC [14]: ≥ 100 µM
MIC [15]: 3.13 µM (≈ 8.15 µg/mL)
SMILES: CC[C@H](C)[C@H](NC(=O)[C@H](CO)NC(=O)CNC(=O)[C@@H](NC(=O)[C@@H](N)CCCN=C(N)N)[C@@H](C)CC)C(=O)N[C@@H](CC(C)C)C(=O)NCC(=O)N[C@@H](CCCN=C(N)N)C(=O)N[C@@H](CC(C)C)C(=O)N[C@@H](C)C(=O)N[C@@H](CCCCN)C(=O)NCC(=O)N[C@@H](CC(C)C)C(=O)N1CCC[C@H]1C(=O)N[C@H](C(=O)N[C@@H](CC(C)C)C(=O)N[C@@H](CCCN=C(N)N)C(=O)N[C@@H](CO)C(=O)N[C@@H](Cc1c[nH]c2ccccc12)C(=O)N[C@H](C(=O)N[C@@H](CCCCN)C(=O)N[C@@H](CC(N)=O)C(=O)N[C@@H](CCCN=C(N)N)C(N)=O)[C@@H](C)CC)[C@@H](C)O [RIGSILGRLAKGLPTLRSWIKNR]

MIC [16]: ≥ 800 µM
MIC [17]: ≥ 800 µM
MIC [18]: ≥ 800 µM
SMILES: CC(=O)N[C@@H](CCCCN)C(=O)N[C@@H](CCCCN)C(=O)N[C@@H](C)C(=O)N[C@@H](CCCCN)C(=O)N[C@@H](CCCCN)C(=O)N[C@@H](C)C(=O)N[C@@H](CCCCN)C(=O)N[C@@H](CCCCN)C(=O)N[C@@H](C)C(N)=O [KKAKKAKKA]

MIC [19]: 26.4 µM (≈ 65.1 µg/mL)
MIC [20]: 26.4 µM (≈ 65.1 µg/mL)
MIC [21]: 26.4 µM (≈ 65.1 µg/mL)
MIC [22]: 26.4 µM (≈ 65.1 µg/mL)
MIC [23]: 26.4 µM (≈ 65.1 µg/mL)
SMILES: CC(=O)N[C@@H](CCC(=O)O)C(=O)N[C@@H](CCC(=O)O)C(=O)N[C@@H](CCC(=O)O)C(=O)N[C@@H](CCC(=O)O)C(=O)N[C@@H](C)C(=O)N[C@@H](C)C(=O)N[C@@H](C)C(=O)NCC(=O)N[C@@H](Cc1c[nH]c2ccccc12)C(=O)NCC(=O)N[C@@H](CC(C)C)C(=O)N[C@@H](CCCN=C(N)N)C(=O)N[C@@H](CCCN=C(N)N)C(=O)N[C@@H](CC(C)C)C(=O)N[C@@H](CC(C)C)C(=O)N[C@@H](CCCCN)C(=O)N[C@@H](Cc1ccc(O)cc1)C(=O)NCC(=O)N[C@@H](CCCCN)C(=O)N[C@@H](CCCN=C(N)N)C(=O)N[C@@H](CO)C(N)=O [EEEEAAAGWGLRRLLKYGKRS]

MIC (Shigella dysenteriae): 12.3 µM (≈ 37.5 µg/mL)
MIC (Vibrio harveyi): 12.3 µM (≈ 37.5 µg/mL)
MIC [24]: ≥ 65.7 µM
MIC [2]: 12.3 µM (≈ 37.5 µg/mL)
MIC (Klebsiella pneumoniae): 3.08 µM (≈ 9.38 µg/mL)
MIC (Candida albicans): > 65.7 µM
MIC (Staphylococcus aureus): 12.3 µM (≈ 37.5 µg/mL)
MIC [3]: > 65.7 µM
MIC (Proteus mirabilis): 3.08 µM (≈ 9.38 µg/mL)
MIC (Bacillus cereus): ≥ 65.7 µM
MIC (Staphylococcus aureus 4): 3.08 µM (≈ 9.38 µg/mL)
MIC (Nocardia asteroides): 6.16 µM (≈ 18.8 µg/mL)
MIC [25]: 6.16 µM (≈ 18.8 µg/mL)
MIC [26]: 3.08 µM (≈ 9.38 µg/mL)
MIC (Enterococcus faecalis): ≥ 65.7 µM
MIC (Klebsiella oxytoca): ≥ 65.7 µM
MIC (Proteus vulgaris): ≥ 65.7 µM
MIC [27]: ≥ 65.7 µM
MIC (Enterococcus faecium): ≥ 65.7 µM
MIC (Aeromonas hydrophila): 12.3 µM (≈ 37.5 µg/mL)
MIC (Escherichia coli 1): 1.54 µM (≈ 4.69 µg/mL)
MIC (Aspicilia cinerea): ≥ 65.7 µM
MIC (Escherichia coli): 4.36 µM (≈ 13.3 µg/mL)
MIC (Staphylococcus aureus 1): ≥ 65.7 µM
MIC (Bacillus subtilis): 3.08 µM (≈ 9.38 µg/mL)
MIC (Vibrio anguillarum): 6.16 µM (≈ 18.8 µg/mL)
MIC (Acinetobacter baumannii): ≥ 65.7 µM
MIC (Aeromonas sobria): 12.3 µM (≈ 37.5 µg/mL)
MIC (Pseudomonas aeruginosa): 6.16 µM (≈ 18.8 µg/mL)
MIC (Candida glabrata): 12.3 µM (≈ 37.5 µg/mL)
MIC [28]: 12.3 µM (≈ 37.5 µg/mL)
MIC (Candida glabrata 1): ≥ 65.7 µM
SMILES: CC[C@H](C)[C@H](NC(=O)CNC(=O)[C@H](Cc1c[nH]c2ccccc12)NC(=O)CNC(=O)[C@H](C)NC(=O)[C@H](C)NC(=O)[C@H](CCCCN)NC(=O)[C@H](CC(C)C)NC(=O)CNC(=O)CNC(=O)[C@H](CCCN=C(N)N)NC(=O)[C@H](CC(C)C)NC(=O)[C@H](CC(C)C)NC(=O)[C@H](Cc1c[nH]c2ccccc12)NC(=O)[C@H](CC(C)C)NC(=O)[C@H](Cc1c[nH]c2ccccc12)NC(=O)[C@H](CCCN=C(N)N)NC(=O)[C@@H](N)[C@@H](C)O)C(=O)N[C@@H](CCCN=C(N)N)C(=O)N[C@@H](C)C(=O)N[C@@H](Cc1cnc[nH]1)C(=O)N[C@@H](CC(C)C)C(=O)N[C@@H](CC(N)=O)C(=O)N[C@@H](CCCN=C(N)N)C(=O)N[C@@H](CC(N)=O)C(=O)N[C@@H](CCC(N)=O)C(=O)O [TRWLWLLRGGLKAAGWGIRAHLNRNQ]
MIC (Vibrio parahaemolyticus): 12.3 µM (≈ 37.5 µg/mL)
MIC (Aeromonas veronii): 24.6 µM (≈ 75 µg/mL)
MIC (Vibrio cholerae): 12.3 µM (≈ 37.5 µg/mL)
